Source: PubChem BioAssay (NCI)
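A five-concentration, 48-hour dose response in 96-well plates underlies each endpoint, interpolated linearly between surrounding concentrations. TGI marks complete inhibition of growth.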

Legend:
Assay in all cases: NCI tumour cell line growth inhibition, 48 h
SK-OV-3 ovarian = test system: SK-OV-3 ovarian
HCT-15 colon = test system: HCT-15 colon
A549 NSCLC = test system: A549 NSCLC
NCI-H23 lung = test system: NCI-H23 lung
HS 578T breast = test system: HS 578T breast
MOLT-4 leukemia = test system: MOLT-4 leukemia
MDA-N = test system: MDA-N
CCRF-CEM leukemia = test system: CCRF-CEM leukemia
IGROV1 ovarian = test system: IGROV1 ovarian
LOX IMVI melanoma = test system: LOX IMVI melanoma
RPMI-8226 leukemia = test system: RPMI-8226 leukemia
HOP-92 NSCLC = test system: HOP-92 NSCLC
A498 renal = test system: A498 renal
NCI-H460 lung = test system: NCI-H460 lung
BT-549 breast = test system: BT-549 breast
SNB-75 CNS = test system: SNB-75 CNS
HOP-62 NSCLC = test system: HOP-62 NSCLC
SF-295 CNS = test system: SF-295 CNS
CAKI-1 renal = test system: CAKI-1 renal
PC-3 prostate = test system: PC-3 prostate
HCT-116 colon = test system: HCT-116 colon
SNB-19 CNS = test system: SNB-19 CNS
EKVX NSCLC = test system: EKVX NSCLC
UACC-257 melanoma = test system: UACC-257 melanoma
RXF 393 renal = test system: RXF 393 renal
MDA-MB-231 breast = test system: MDA-MB-231 breast
HCC-2998 colon = test system: HCC-2998 colon
SK-MEL-2 melanoma = test system: SK-MEL-2 melanoma
SF-268 CNS = test system: SF-268 CNS
K-562 leukemia = test system: K-562 leukemia
HT29 colon = test system: HT29 colon
KM12 colon = test system: KM12 colon
MALME-3M melanoma = test system: MALME-3M melanoma
OVCAR-8 ovarian = test system: OVCAR-8 ovarian
OVCAR-5 ovarian = test system: OVCAR-5 ovarian
UACC-62 melanoma = test system: UACC-62 melanoma
786-0 renal = test system: 786-0 renal
M14 melanoma = test system: M14 melanoma
TK-10 renal = test system: TK-10 renal
MCF7 breast = test system: MCF7 breast
DU-145 prostate = test system: DU-145 prostate
SN12C renal = test system: SN12C renal
HL-60(TB) leukemia = test system: HL-60(TB) leukemia
OVCAR-3 ovarian = test system: OVCAR-3 ovarian
COLO 205 colon = test system: COLO 205 colon
NCI-H522 lung = test system: NCI-H522 lung
SK-MEL-5 melanoma = test system: SK-MEL-5 melanoma
NCI/ADR-RES ovarian = test system: NCI/ADR-RES ovarian
SW-620 colon = test system: SW-620 colon
T-47D breast = test system: T-47D breast
SF-539 CNS = test system: SF-539 CNS
SR leukemia = test system: SR leukemia
MDA-MB-435 = test system: MDA-MB-435
SK-MEL-28 melanoma = test system: SK-MEL-28 melanoma
U251 CNS = test system: U251 CNS
ACHN renal = test system: ACHN renal
UO-31 renal = test system: UO-31 renal
OVCAR-4 ovarian = test system: OVCAR-4 ovarian
NCI-H226 lung = test system: NCI-H226 lung

## COc1ccc2[nH]c(Cl)c(/C=C3/C(=O)N(c4ccccc4)c4ccccc43)c2c1
SK-OV-3 ovarian
  TGI: 10.8 µM
HCT-15 colon
  TGI: 13 µM
A549 NSCLC
  TGI: > 100 µM
NCI-H23 lung
  TGI: 19.5 µM
HS 578T breast
  TGI: 39.6 µM
MOLT-4 leukemia
  TGI: > 100 µM
MDA-N
  TGI: 3.53 µM
CCRF-CEM leukemia
  TGI: 63.4 µM
IGROV1 ovarian
  TGI: > 100 µM
LOX IMVI melanoma
  TGI: 14.3 µM
RPMI-8226 leukemia
  TGI: 20.4 µM
HOP-92 NSCLC
  TGI: > 100 µM
A498 renal
  TGI: > 100 µM
NCI-H460 lung
  TGI: 16.3 µM
BT-549 breast
  TGI: 11.3 µM
SNB-75 CNS
  TGI: 49.1 µM
HOP-62 NSCLC
  TGI: 23.4 µM
SF-295 CNS
  TGI: 7.33 µM
CAKI-1 renal
  TGI: > 100 µM
PC-3 prostate
  TGI: > 100 µM
HCT-116 colon
  TGI: 18.6 µM
SNB-19 CNS
  TGI: 88.5 µM
EKVX NSCLC
  TGI: 69.5 µM
UACC-257 melanoma
  TGI: 24.3 µM
RXF 393 renal
  TGI: 47.3 µM
MDA-MB-231 breast
  TGI: 65.3 µM
HCC-2998 colon
  TGI: 17.6 µM
SK-MEL-2 melanoma
  TGI: 10.9 µM
SF-268 CNS
  TGI: 23.3 µM
K-562 leukemia
  TGI: 26.4 µM
HT29 colon
  TGI: 45.8 µM
KM12 colon
  TGI: > 100 µM
MALME-3M melanoma
  TGI: 36.2 µM
OVCAR-8 ovarian
  TGI: 28.8 µM
OVCAR-5 ovarian
  TGI: 94.8 µM
UACC-62 melanoma
  TGI: 43.4 µM
786-0 renal
  TGI: 20.9 µM
M14 melanoma
  TGI: 12.9 µM
TK-10 renal
  TGI: 36.5 µM
MCF7 breast
  TGI: > 100 µM
DU-145 prostate
  TGI: 76.4 µM
SN12C renal
  TGI: 18.9 µM
HL-60(TB) leukemia
  TGI: 9.02 µM
OVCAR-3 ovarian
  TGI: 7.71 µM
COLO 205 colon
  TGI: 5.89 µM
NCI-H522 lung
  TGI: 17.9 µM
SK-MEL-5 melanoma
  TGI: 5.97 µM
NCI/ADR-RES ovarian
  TGI: 6.45 µM
SW-620 colon
  TGI: 24.6 µM
T-47D breast
  TGI: 21.4 µM
SF-539 CNS
  TGI: 6.63 µM
SR leukemia
  TGI: 11.1 µM
MDA-MB-435
  TGI: 4.33 µM
SK-MEL-28 melanoma
  TGI: 52 µM
U251 CNS
  TGI: 30.7 µM
ACHN renal
  TGI: > 100 µM
UO-31 renal
  TGI: 93.1 µM

## COc1ccc(N2CCOCC2)cc1
SK-OV-3 ovarian
  TGI: > 100 µM
HCT-15 colon
  TGI: > 100 µM
A549 NSCLC
  TGI: > 100 µM
NCI-H23 lung
  TGI: > 100 µM
HS 578T breast
  TGI: > 100 µM
MOLT-4 leukemia
  TGI: > 100 µM
MDA-N
  TGI: > 100 µM
CCRF-CEM leukemia
  TGI: > 100 µM
IGROV1 ovarian
  TGI: > 100 µM
RPMI-8226 leukemia
  TGI: > 100 µM
HOP-92 NSCLC
  TGI: > 100 µM
A498 renal
  TGI: > 100 µM
NCI-H460 lung
  TGI: > 100 µM
BT-549 breast
  TGI: > 100 µM
SNB-75 CNS
  TGI: > 100 µM
HOP-62 NSCLC
  TGI: > 100 µM
SF-295 CNS
  TGI: > 100 µM
CAKI-1 renal
  TGI: > 100 µM
PC-3 prostate
  TGI: > 100 µM
HCT-116 colon
  TGI: > 100 µM
SNB-19 CNS
  TGI: > 100 µM
EKVX NSCLC
  TGI: > 100 µM
UACC-257 melanoma
  TGI: > 100 µM
RXF 393 renal
  TGI: > 100 µM
MDA-MB-231 breast
  TGI: > 100 µM
HCC-2998 colon
  TGI: > 100 µM
SK-MEL-2 melanoma
  TGI: > 100 µM
SF-268 CNS
  TGI: > 100 µM
K-562 leukemia
  TGI: > 100 µM
HT29 colon
  TGI: > 100 µM
KM12 colon
  TGI: > 100 µM
MALME-3M melanoma
  TGI: > 100 µM
OVCAR-8 ovarian
  TGI: > 100 µM
OVCAR-5 ovarian
  TGI: > 100 µM
UACC-62 melanoma
  TGI: > 100 µM
786-0 renal
  TGI: > 100 µM
M14 melanoma
  TGI: > 100 µM
TK-10 renal
  TGI: > 100 µM
MCF7 breast
  TGI: > 100 µM
DU-145 prostate
  TGI: > 100 µM
SN12C renal
  TGI: > 100 µM
HL-60(TB) leukemia
  TGI: > 100 µM
OVCAR-3 ovarian
  TGI: > 100 µM
COLO 205 colon
  TGI: > 100 µM
NCI-H522 lung
  TGI: > 100 µM
SK-MEL-5 melanoma
  TGI: > 100 µM
NCI/ADR-RES ovarian
  TGI: > 100 µM
SW-620 colon
  TGI: > 100 µM
OVCAR-4 ovarian
  TGI: > 100 µM
T-47D breast
  TGI: > 100 µM
SF-539 CNS
  TGI: > 100 µM
NCI-H226 lung
  TGI: > 100 µM
SR leukemia
  TGI: > 100 µM
MDA-MB-435
  TGI: > 100 µM
SK-MEL-28 melanoma
  TGI: > 100 µM
U251 CNS
  TGI: > 100 µM
ACHN renal
  TGI: > 100 µM
UO-31 renal
  TGI: > 100 µM
